The source made the active and inactive calls.
Legend:
[1] = biological target: T1, Orexin receptor type 2 (Homo sapiens, UniProt O43614); test: Counterscreen assay for antagonists of the orexin 1 receptor (OX1R; HCRTR1): Fluorescence-based cell-based dose response assay for antagonists of the orexin 2 receptor (OX2R; HCRTR2), run by assay provider.; assay type: functional
T1 sequence (O43614 whole entry): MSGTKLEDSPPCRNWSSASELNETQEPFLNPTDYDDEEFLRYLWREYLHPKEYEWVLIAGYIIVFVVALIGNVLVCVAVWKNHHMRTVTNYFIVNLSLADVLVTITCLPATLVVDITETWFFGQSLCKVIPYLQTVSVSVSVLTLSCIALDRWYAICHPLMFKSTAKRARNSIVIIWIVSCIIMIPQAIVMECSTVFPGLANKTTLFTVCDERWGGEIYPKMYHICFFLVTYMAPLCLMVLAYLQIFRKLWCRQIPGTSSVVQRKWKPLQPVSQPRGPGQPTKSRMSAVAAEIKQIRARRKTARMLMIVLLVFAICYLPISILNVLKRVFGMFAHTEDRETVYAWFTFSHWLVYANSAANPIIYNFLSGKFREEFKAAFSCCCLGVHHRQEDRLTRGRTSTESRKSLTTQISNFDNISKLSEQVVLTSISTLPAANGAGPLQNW

[2] = biological target: T1, Orexin receptor type 2; test: Counterscreen assay for antagonists of the orexin 1 receptor (OX1R; HCRTR1): Homogeneous Time Resolved Fluorescence (HTRF)-based cell-based dose response assay for antagonists of the orexin 2 receptor (OX2R; HCRTR2), run by assay provider.; assay type: functional
[3] = biological target: T2, Orexin/Hypocretin receptor type 1 (Homo sapiens, UniProt O43613); test: (§1) Fluorescence-based cell-based high throughput dose response assay for antagonists of the orexin 1 receptor (OX1R; HCRTR1). [Related pubchem assays (depositor defined):AID434989, AID435008, AID463079, AID485270, AID492963, AID492964, AID492965, AID493232, AID504717, AID504718]; assay type: functional
T2 sequence (O43613 whole entry): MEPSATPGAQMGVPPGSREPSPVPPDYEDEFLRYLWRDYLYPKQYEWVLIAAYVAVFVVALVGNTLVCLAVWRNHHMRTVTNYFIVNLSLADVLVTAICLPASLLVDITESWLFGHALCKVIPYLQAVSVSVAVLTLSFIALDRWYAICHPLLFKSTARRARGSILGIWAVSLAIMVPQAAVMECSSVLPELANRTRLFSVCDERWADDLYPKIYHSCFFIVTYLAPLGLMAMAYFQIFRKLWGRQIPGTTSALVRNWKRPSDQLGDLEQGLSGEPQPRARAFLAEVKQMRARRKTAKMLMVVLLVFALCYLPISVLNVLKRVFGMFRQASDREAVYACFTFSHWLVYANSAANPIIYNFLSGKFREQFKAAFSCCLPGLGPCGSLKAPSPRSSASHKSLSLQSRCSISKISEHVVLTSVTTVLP

[4] = test system: CHO-K1; test: (§2) Counterscreen for antagonists of the orexin 1 receptor (OX1R; HCRTR1): Homogeneous time resolved fluorescence (HTRF)-based cell-based dose response assay to identify antagonists of the parental CHO-K1 cell line. [Related pubchem assays (depositor defined):AID434989, AID435008, AID463079, AID485270, AID492963, AID492964, AID492965, AID493232, AID504699, AID504701]; assay type: functional; settings: Cricetulus griseus
[5] = as §2, with “Fluorescence-based” for “Homogeneous time resolved fluorescence (HTRF)-based”, “cell-based high throughput” for “cell-based”, “CHO” for “CHO-K1”; assay type: functional
[6] = biological target: T2, Orexin/Hypocretin receptor type 1; test: as §1, with “Homogeneous Time Resolved Fluorescence (HTRF)-based” for “Fluorescence-based”; assay type: functional
[7] = biological target: T3, Carboxy-terminal domain RNA polymerase II polypeptide A small phosphatase 1 (Homo sapiens, UniProt Q9GZU7); test: CTDSP1 inhibitors, concentration-response, biochemical, absorbance readout, ultra-high-throughput screen actives (AID 540297); assay type: functional
T3 sequence (Q9GZU7 whole entry): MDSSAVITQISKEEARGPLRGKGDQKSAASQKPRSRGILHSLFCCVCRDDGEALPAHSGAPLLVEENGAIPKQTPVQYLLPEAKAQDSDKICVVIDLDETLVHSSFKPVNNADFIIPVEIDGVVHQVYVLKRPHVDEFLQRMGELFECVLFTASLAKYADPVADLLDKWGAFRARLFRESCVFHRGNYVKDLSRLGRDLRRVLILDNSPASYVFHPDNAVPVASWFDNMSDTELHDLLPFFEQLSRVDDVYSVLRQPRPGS

[8] = cAMP pathway inhibition in counterscreen cell line – TR-FRET cAMP detection, counter-screen for MC4R biased antagonist project, dose response (AID 602305); assay type: functional, cell-based;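 further: U2OS cells stimulated with forskolin near its EC80 as the cAMP inducer; potency is for inhibition of forskolin-stimulated cAMP signaling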
[9] = test system: SN12K1; test: cells; assay type: functional; settings: Homo sapiens
[10] = test system: P388; test: cells; assay type: functional; settings: Mus musculus
[11] = test system: P388/ADR; test: cells; assay type: functional; settings: Mus musculus
[12] = biological target: Melanocortin receptor 4 (Homo sapiens, UniProt P32245); test: inhibitors of MC4R cAMP signaling – cell-based, TR-FRET, biased antagonists, dose response (AID 602298); assay type: functional;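 further: antagonist potency against agonist-stimulated cAMP production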
[13] = test system: HEK293; test: optical interference in Abeta FP readout, dose response, artefact control for IDE activator project, biochemical, fluorescence polarization (AID 588442); assay type: functional, cell-based; settings: Homo sapiens
[14] = biological target: T4, Insulin-degrading enzyme (Homo sapiens, UniProt P14735); test: recombinant IDE activation, cell-free – biochemical, fluorescence polarization, counter-screen for IDE activator project, dose response (AID 588681)
T4 sequence (P14735 whole entry): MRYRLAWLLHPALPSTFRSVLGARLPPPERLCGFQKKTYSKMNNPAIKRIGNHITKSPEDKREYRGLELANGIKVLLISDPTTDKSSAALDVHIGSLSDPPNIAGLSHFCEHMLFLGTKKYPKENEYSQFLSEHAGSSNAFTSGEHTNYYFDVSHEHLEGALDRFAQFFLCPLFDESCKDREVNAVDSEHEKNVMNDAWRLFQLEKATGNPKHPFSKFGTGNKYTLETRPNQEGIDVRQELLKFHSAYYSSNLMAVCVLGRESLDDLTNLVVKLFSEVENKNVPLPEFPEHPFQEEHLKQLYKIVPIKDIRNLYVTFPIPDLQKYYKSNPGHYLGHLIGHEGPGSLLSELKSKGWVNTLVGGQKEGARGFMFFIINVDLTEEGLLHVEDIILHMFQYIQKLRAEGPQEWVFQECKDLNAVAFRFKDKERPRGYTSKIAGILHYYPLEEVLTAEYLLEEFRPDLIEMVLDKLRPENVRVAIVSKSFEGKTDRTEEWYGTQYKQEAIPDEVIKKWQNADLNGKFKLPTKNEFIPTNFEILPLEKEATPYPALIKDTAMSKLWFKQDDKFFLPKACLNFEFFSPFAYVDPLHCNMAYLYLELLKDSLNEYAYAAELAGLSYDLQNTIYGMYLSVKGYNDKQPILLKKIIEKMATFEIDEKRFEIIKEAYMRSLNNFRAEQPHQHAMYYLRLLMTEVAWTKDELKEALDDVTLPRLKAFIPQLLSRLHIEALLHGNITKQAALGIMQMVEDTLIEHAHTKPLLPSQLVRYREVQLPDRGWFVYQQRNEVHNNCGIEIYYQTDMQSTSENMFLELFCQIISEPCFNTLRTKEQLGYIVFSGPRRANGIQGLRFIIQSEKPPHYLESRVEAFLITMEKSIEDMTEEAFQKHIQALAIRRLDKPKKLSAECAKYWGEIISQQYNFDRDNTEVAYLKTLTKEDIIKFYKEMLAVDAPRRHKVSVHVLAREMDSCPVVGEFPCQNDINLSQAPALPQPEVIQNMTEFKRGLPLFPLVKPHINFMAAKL

[15] = biological target: T4, Insulin-degrading enzyme; test: cellular IDE activation of Abeta substrate cleavage – fluorescence polarization, HEK cells, dose response (AID 588439); assay type: functional, cell-based
[16] = test system: HEK293; test: membrane integrity loss in HEK cells – cell-based, fluorescence, cytotoxicity control for IDE activator project, dose response (AID 588440); assay type: functional; settings: Homo sapiens;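 further: cytotoxicity by LDH release measuring loss of membrane integrity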
[17] = biological target: T5, Cytochrome P450 1A2 (Homo sapiens, UniProt P05177);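 further: PubChem cytochrome P450 panel assay, CYP1A2 panel member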
T5 sequence (P05177 whole entry): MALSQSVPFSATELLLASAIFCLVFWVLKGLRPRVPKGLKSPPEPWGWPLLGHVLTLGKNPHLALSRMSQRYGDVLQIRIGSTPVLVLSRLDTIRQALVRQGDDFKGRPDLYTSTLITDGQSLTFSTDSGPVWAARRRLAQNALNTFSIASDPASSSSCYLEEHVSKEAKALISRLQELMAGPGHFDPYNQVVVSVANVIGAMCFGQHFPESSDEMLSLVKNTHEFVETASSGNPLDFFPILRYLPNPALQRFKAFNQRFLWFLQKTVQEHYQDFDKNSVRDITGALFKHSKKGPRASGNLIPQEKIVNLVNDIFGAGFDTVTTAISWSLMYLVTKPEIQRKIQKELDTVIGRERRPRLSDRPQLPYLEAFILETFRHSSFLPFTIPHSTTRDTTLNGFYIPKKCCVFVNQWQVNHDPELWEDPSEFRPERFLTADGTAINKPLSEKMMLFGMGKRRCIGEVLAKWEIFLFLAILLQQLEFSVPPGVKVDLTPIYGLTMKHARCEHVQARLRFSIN

Chain of Melanocortin receptor 4 (P32245 whole entry): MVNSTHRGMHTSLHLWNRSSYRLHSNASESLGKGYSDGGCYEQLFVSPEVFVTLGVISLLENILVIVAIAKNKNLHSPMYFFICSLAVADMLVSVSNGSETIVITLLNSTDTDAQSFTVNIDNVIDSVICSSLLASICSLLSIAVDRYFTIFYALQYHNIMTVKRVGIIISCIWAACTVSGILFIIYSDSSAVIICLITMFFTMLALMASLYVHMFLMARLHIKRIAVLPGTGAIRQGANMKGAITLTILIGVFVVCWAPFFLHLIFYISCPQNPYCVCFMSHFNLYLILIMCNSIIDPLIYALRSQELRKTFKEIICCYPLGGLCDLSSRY

| Structure (SMILES) | IC50 [1] | IC50 [2] | IC50 [3] | IC50 [4] | IC50 [5] | IC50 [6] | further results |
| --- | --- | --- | --- | --- | --- | --- | --- |
| N#Cc1cccn1-c1nccc(-c2cccs2)n1 | > 88.8 µM (inactive) | > 50 µM (inactive) | 20.3 µM (inactive) | > 66.2 µM (inactive) | > 49.7 µM (inactive) | 3.66 µM (active) |  |
| O=C(OCc1cc(=O)n2c(n1)sc1ccccc12)c1cccc(O)c1 | > 88.8 µM (inactive) | > 50 µM (inactive) | 5.73 µM (active) | > 66.2 µM (inactive) | 37 µM (inactive) | 5.46 µM (active) | IC50 [7]: 3.87 µM (active) |
| CC(C)Cc1ccc(C(C)CC2=CCC(CN(C)C)C2=O)cc1 (stereo not drawn) |  |  |  |  |  |  | IC50 [8]: > 64.7 µM (inactive); GI50 [9]: 3.33 µM (inactive); GI50 [10]: 2.02 µM (inactive); GI50 [11]: 1.09 µM (active); IC50 [12]: 8.78 µM (active) |
| Cc1ccccc1OC/C(O)=C(\C#N)c1nc2ccccc2[nH]1 |  |  |  |  |  |  | EC50 [13]: > 54.7 µM (inactive); EC50 [14]: > 54.7 µM (inactive); EC50 [15]: > 54.7 µM (inactive); IC50 [16]: > 89.2 µM (inactive); AC50 [17]: 0.282 µM (inconclusive) |

Source: ChEMBL document CHEMBL1201862, “PubChem BioAssay data set” (2004)
